Patent US5473055A, “Polymer-bound paclitaxel derivatives” (Farmitalia Carlo Erba S.r.l., priority 1992, dated 1995)
Read-outs that look alike come from different tables or passages of the source.

Columns and labels:
Calf brain tubulin = experiment: Microtubule assembly and disassembly assay; type: biochemical; conditions: percentage of repolymerisation induced after CaCl2 depolymerisation
Protocol: Calf brain tubulin was prepared by two cycles of assembly-disassembly (Shelanski M. L. Gaskin F. and Cantor C. R., Proc. Natl. Acad. Sci. U.S.A. 70, 765-768, 1973) and stored in liquid nitrogen in MAB (0.1M MES, 2.5 mM EGTA, 0.5 mM MgSO4, 0.1 mM EDTA, 0.1 mM DTT pH 6.4).
All the experiments were carried out on protein stored for less than 4 weeks.
Before each experiment, the tubulin was kept 30 min at 4° C.
Assembly was monitored by the method of Gaskin et al (Gaskin F., Cantor C. R. Shelanski M. L. J. Molec. Biol 89, 737-758, 1974). The cuvette (1 cm path) containing tubulin (1 mg/ml) and 1 mM GTP was shifted to 37° C. and continous turbidity measurements were made at 340 nm on Perkin-Elmer 557 Double Wavelength Double Beam Spectrophotometer equipped with an automatic recorder and a termostatically regulated sample chamber.
After 30 minutes 4 mM CaCl2 was added and depolymerisation was measured for 10 minutes as decreased turbidity. At regular intervals of 15 minutes scalar doses of the tested compounds were added and variations in the turbidity were monitored. Data are espressed as percentage of ripolymerisation induced by the tested compounds.

[1] = tested on: B16-F10 murine melanoma cells; experiment: In vitro drug sensitivity assay; type: cell-based; conditions: 72 hrs incubation, cell counting, read-out: IC50 (dose causing 50% inhibition cell growth)
Protocol: Exponentially growing B16-F10 murine melanoma cells were seeded (2×10^4 /ml) in RPMI 1640 medium were supplemented with 10% heat-inactivated fetal calf serum and 2 mM glutamine in 24 well-plates (Costar). Scalar concentrations of tested compounds were added immediately after seeding. The inhibition of cell growth was evaluated by counting cells with a coulter counter after 72 hrs incubation. For each tested compound concentration triplicate cultures were used. The antiproliferative activity of the tested compounds was calculated from dose-response curves and espressed as IC50 (dose causing 50% inhibition cell growth in treated cultures relative to untreated controls).

B16 F10 murine melanoma = experiment: In vivo antitumor activity against B16 F10 murine melanoma; parameters: species or system C57B16 female mice
Protocol: The copolymer-paclitaxel prepared in Example 6 was tested in vivo against B16 F10 murine melanoma in comparison with paclitaxel.
C57B16 female mice were obtained from Charles River Italy.
Animals were 8 to 10 weeks old at the beginning of the experiment.
The murine melanoma B16F10 was used. A suspension of 10^5 tumor cells in 0.2 ml was injected subcutaneously in the flank of mice.
Tumor size was measured with caliper and tumor weight was calculated with the formula: [formula]
(§1) The compound of example 6 was injected intravenously. Both compounds were administered at day 1, 5, 9 after tumor implantation.
The dose of the polymer-conjugate is referred to the paclitaxel content.

[2] = TOX determination in tumor-bearing mice; type: in vivo, C57B16 female mice; conditions: day 1, 5, 9
Protocol: as §1
TOX: number of mice which died for toxicity.
TOX determination was made when mice died before the control or when significant body weight loss and/or spleen and or/or liver size reduction were observed.

Molecule | Tubulin Assembly % (Calf brain tubulin; 0.5 μM) [%] | Tubulin Assembly % (Calf brain tubulin; 5 μM) [%] | IC50 ([1]; Mus musculus) [µM] | IC50 [1] [µM] | further results
CC(=O)OC1C(=O)C2(C)C(OC(=O)CCN)CC3OCC3(OC(C)=O)C2C(OC(=O)c2ccccc2)C2(O)CC(OC(=O)C(O)C(NC(=O)c3ccccc3)c3ccccc3)C(C)=C1C2(C)C (stereo not shown) [Example 9, 7-(βalanyl)paclitaxel] | 79 | 145 | 47 |  | 
Copolymer of 1-methacryloylamino-2-hydroxypropane, 1 (methacryloyl-glycyl-phenylalanyl-leucyl-glycyl)amino-2-hydroxypropane and 2'(methacryloyl-glycyl-phenylalanyl-leucyl-glycyl)paclitaxel [Example 1] | 0 | 15 |  | 19 | 
Copolymer of 1-methacryloylamino-2-hydroxypropane,1-(methacryloyl-glycyl-phenylanyl-leucyl-glycyl)amino-2hydroxypropane and 2(methacryloyl-glycyl-phenylalanyl-leucyl-glycyl-βalanyl)paclitaxel [Example 6] | 0 | 10 |  | 51 | Tumor Inhibition (%) (B16 F10 murine melanoma; 14.6 mg/Kg (paclitaxel content) intravenously, day 1, 5, 9): 77%; Tumor Inhibition (%) (B16 F10 murine melanoma; 22 mg/Kg (paclitaxel content) intravenously, day 1, 5, 9): 79%; Tox: number of mice which died for toxicity ([2]; 14.6 mg/Kg (paclitaxel content) intravenously): 0/9; Tox: number of mice which died for toxicity ([2]; 22 mg/Kg (paclitaxel content) intravenously): 0/10; Dissolution in glucose 5% (glucose 5%): easily dissolved; Time the resulting solution was clear (solution in glucose 5%): more than 2 hours
CC(=O)O[C@H]1C(=O)[C@@]2(C)[C@H]([C@H](OC(=O)c3ccccc3)[C@]3(O)C[C@H](OC(=O)[C@H](O)[C@@H](NC(=O)c4ccccc4)c4ccccc4)C(C)=C1C3(C)C)[C@]1(OC(C)=O)CO[C@@H]1C[C@@H]2O [Paclitaxel] | 41 | 96 | 39 |  | Tumor Inhibition (%) (B16 F10 murine melanoma; 14.6 mg/Kg intraperitoneally, day 1, 5, 9 after tumor implantation): 53%; Tumor Inhibition (%) (B16 F10 murine melanoma; 22 mg/Kg intraperitoneally, day 1, 5, 9): 38%; Tumor Inhibition (%) (B16 F10 murine melanoma; 33 mg/Kg intraperitoneally, day 1, 5, 9): 92%; Tox: number of mice which died for toxicity ([2]; 14.6 mg/Kg intraperitoneally): 0/10; Tox: number of mice which died for toxicity ([2]; 22 mg/Kg intraperitoneally): 0/10; Tox: number of mice which died for toxicity ([2]; 33 mg/Kg intraperitoneally): 1/7; Appearance of the solution (Cremophor EL 50% and ethanol 50%, diluted with glucose 5% solution): slightly hazy and precipitates formation was observed after short time
Copolymer of 1-methacryloylamino-2-hydroxypropane, 1-(methacryloyl-glycyl)amino-2-hydroxypropane and 2'(methacryloyl-glycyl-phenylalanyl-leucyl-glycyl)paclitaxel [Example 4] | 0 | 10 |  | 11 | 
CC(=O)OC1C(=O)C2(C)C(O)CC3OCC3(OC(C)=O)C2C(OC(=O)c2ccccc2)C2(O)CC(OC(=O)C(OC(=O)CNC(=O)C(CC(C)C)NC(=O)C(N)Cc3ccccc3)C(NC(=O)c3ccccc3)c3ccccc3)C(C)=C1C2(C)C (stereo not shown) [Example 3, 2'(phenylalanyl-leucyl-glycyl)paclitaxel] | 46 | 86 | 23 |  | 
